Test results reported in patent US12384816B2, “Blood-brain barrier permeable peptide” (NATIONAL UNIVERSITY CORPORATION KUMAMOTO UNIVERSITY, priority 2018, dated 2025).
Positions of bridges follow the written chain, without caps; N, C: chain ends. Residues, ends and D or L forms follow the SMILES beside them.

Columns and labels:
Assay type in all cases: cell-based, human
[1] = tested on: hCMEC/D3 cells; assay: Influence of monensin on hCMEC/D3 permeation of SLS-phage; conditions: monensin-containing medium for 18 hours, concentration-dependent
Method: The medium at the luminal side and the abluminal side was replaced by a monensin-containing medium, and culture was further performed for 18 hours.

[2] = tested on: hCMEC/D3 cells; assay: Influence on tight junction (TEER) of hCMEC/D3 cells; conditions: 0 to 100 μM, until 48 hours
Method: The synthetic cyclic peptide SLSHSPQ (SEQ ID NO: 1) (0 to 100 μM) before labeling prepared in Example 3 was added to the cells, and they were incubated in a CO2 incubator at 37° C. The influence on tight junction was evaluated by measuring TEER over time until 48 hours later.

[3] = tested on: hCMEC/D3 cells; assay: Cytotoxicity (cell counting kit-8) in hCMEC/D3 cells; conditions: 0 to 100 μM, 24 and 48 hours
Method: The synthetic cyclic peptide SLSHSPQ (SEQ ID NO: 1) (0 to 100 μM) was added to the cells, and incubated in a CO2 incubator at 37° C. The cell viability after 24 and 48 hours was calculated using the cell counting kit-8.

[4] = tested on: hCMEC/D3 cells; assay: Uptake of FAM-labeled cyclic peptide into hCMEC/D3 cells (confocal microscopy); conditions: 10 µM, 37° C., 10, 30 and 60 minutes
Method: A FAM-labeled synthetic cyclic peptide having the SLSHSPQ (SEQ ID NO: 1) sequence was prepared by requesting Scrum Co., Ltd. A peptide having the sequence of […] (SEQ ID NO: 5), which contains […] (SEQ ID NO: 6), was chemically synthesized, and then a cyclic peptide was formed by forming a disulfide bond between the cysteine residues. Then, a lysine residue was added to the C-terminal and FAM was further bonded to prepare a FAM-labeled cyclic peptide.
The FAM-labeled synthetic cyclic peptide SLSHSPQ (SEQ ID NO: 1) (10 µM) was added to the cells, and incubated on a 37° C. hot plate for 10, 30 and 60 minutes. These were washed with 500 μL of cold PBS three times, and fixed with 4% PFA for 10 minutes. […] (registered trademark) Mounting Medium with DAPI was dropped, then, a cover glass was place thereon to enclose it, and FAM and DAPI were observed by a confocal microscopy. […] From this, it was confirmed that the synthetic cyclic peptide SLSHSPQ (SEQ ID NO: 1) is internalized in the cell.

[5] = tested on: hCMEC/D3 cells; assay: Influence of ligands on hCMEC/D3 permeation of SLS-phage
Method: Using the hCMEC/D3 cells, influences by various ligands (vitronectin, fibrinogen, RGD peptide, transferrin) on the BBB permeability of the phage presenting the peptide SLSHSPQ (SEQ ID NO: 1) of the present invention were tested.
In the +vitronectin group, human vitronectin (R&D Systems, Inc.) was added to give 20 μg/mL. In the +fibrinogen group, human fibrinogen (Wako) was added to give 50 μg/mL. In the +RGD group, an RGD peptide (SIGMA) was added to give 100 μM. In the +holo-Tf (transferrin) group, holo-Tf (SIGMA) was added to give 100 μM.

## CC[C@@]1([C@@H]2O[C@@H]([C@H]3O[C@@](O)(CO)[C@H](C)C[C@@H]3C)C[C@@H]2C)CC[C@H]([C@]2(C)CC[C@]3(C[C@H](O)[C@@H](C)[C@@H]([C@@H](C)[C@@H](OC)[C@H](C)C(=O)O)O3)O2)O1 [monensin]
[1]
  effect on hCMEC/D3 cell permeation amount of the SLS-phage: increased

## CC(C)C[C@@H]1NC(=O)[C@H](CO)NC(=O)[C@@H](NC(=O)[C@H](C)N)CSSC[C@@H](C(=O)NCC(=O)NCC(=O)NCC(=O)N[C@@H](CO)C(=O)O)NC(=O)[C@H](CCC(N)=O)NC(=O)[C@@H]2CCCN2C(=O)[C@H](CO)NC(=O)[C@H](Cc2c[nH]cn2)NC(=O)[C@H](CO)NC1=O [synthetic cyclic peptide SLSHSPQ] (H-ACSLSHSPQCGGGS-OH; disulfide 2-10)
[2]
  influence on tight junction (TEER): did not reduce the tight junction
[3]
  cytotoxicity (cell viability): no cytotoxicity

## FAM-labeled synthetic cyclic peptide SLSHSPQ: Cyclic ACSLSHSPQCGGGS with lysine residue added to the C-terminal and FAM bonded (not fully specified; cyclic; C-terminal lysine added; FAM label)
[4]
  uptake into hCMEC/D3 cells: taken up into the cells

## RGD peptide
[5]; ligand 100 μM
  effect on permeation of the SLS-phage: did not inhibit

## fibrinogen
[5]; human fibrinogen 50 μg/mL
  effect on permeation of the SLS-phage: did not inhibit

## holo-transferrin
[5]; ligand 100 μM
  effect on permeation of the SLS-phage: promoted

B1: vitronectin (protein, UniProt P04004 20-478, looked up)
Vitronectin: DQESCKGRCTEGFNVDKKCQCDELCSYYQSCCTDYTAECKPQVTRGDVFTMPEDEYTVYDDGEEKNNATVHEQVGGPSLTSDLQAQSKGNPEQTPVLKPEEEAPAPEVGASKPEGIDSRPETLHPGRPQPPAEEELCSGKPFDAFTDLKNGSLFAFRGQYCYELDEKAVRPGYPKLIRDVWGIEGPIDAAFTRINCQGKTYLFKGSQYWRFEDGVLDPDYPRNISDGFDGIPDNVDAALALPAHSYSGRERVYFFKGKQYWEYQFQHQPSQEECEGSSLSAVFEHFAMMQRDSWEDIFELLFWGRTSAGTRQPQFISRDWHGVPGQVDAAMAGRIYISGMAPRPSLAKKQRFRHRNRKGYRSQRGHSRGRNQNSRRPSRATWLSLFSSEESNLGANNYDDYRMDWLVPATCEPIQSVFFFSGDKYYRVNLRTRRVDTVDPPYPRSIAQYWLGCPAPGHL
notes: human vitronectin (R&D Systems, Inc.)
[5]; human vitronectin 20 μg/mL
  effect on permeation of the SLS-phage: inhibited
